The source of these data is patent publication US8354246B2, “Non-MCCJ25-related lariat-peptide inhibitors of bacterial RNA polymerase” (priority 2006, dated 2013).

As a reminder, the IC50 is the concentration at which inhibition is half-maximal. Low values mean greater potency in that assay, high ones weaker potency in that assay.

Data set [1] concerns Thermus-Deinoccoccus bacterial RNAP. The note with it: Yuzenkova, et al. (2002); cited from earlier work.
The conditions of data set [2]: tested thermal and chemical denaturants; cited from earlier work.
The subject of data set [3] is Gram-positive bacterial RNAP. The following applies: Yuzenkova, et al. (2002); cited from earlier work.
Data set [4] deals with mesophilic endo- and exopeptidease. The following applies: tested mesophilic endo- and exopeptidases; cited from earlier work.
Data set [5] concerns the target T1, Escherichia coli σ^70 RNAP holoenzyme (Escherichia coli, UniProt P0A8T7).
T1 construct: purchased Epicentre, Inc
Briefly: fluorescence-detected abortive initiation assay. The class given is biochemical. The note with it: lacUV5-12 DNA fragment, 37° C. Here is the method: (§1) Following incubation of reaction mixtures for 5 min at 22° C., 1 μl 1.1 μM DNA fragment lacUV5-12 (Mukhopadhyay et al. (2001) Cell 106, 453-463) was added. Following further incubation of reaction mixtures for […] at 37° C., 0.5 μl 1 mg/ml heparin (Sigma, Inc.; omitted in experiments with T. thermophilus RNAP) and 0.5 μl of 2.75 mM (γ-AmNS)UTP (Molecular Probes, Inc.) were added, and reaction mixtures were transferred to sub-micro fluorometer cuvettes (Starna Cells, Inc.). Following further incubation of reaction mixtures for 2 min at 37° C., RNA synthesis was initiated by addition of 2 μl 11 mM ApA (Sigma, Inc.), and fluorescence emission intensity was monitored for 5 min at 37° C. [excitation wavelength=360 nm and emission wavelength=500 nm; excitation and emission slit widths=4 nm; QuantaMaster QM1 spectrofluorometer (PTI, Inc.)]. The quantity of UMP incorporated into RNA was determined from the quantity of (γ-AmNS) UTP consumed, which, in turn, was calculated as follows (Schlageck et al. 1979): (γ-AmNS)UTPconsumed=[(γ-AmNS)UTP0](Ft−F0)/(12.4×F0) where (γ-AmNS)UTP0 is the quantity of (γ-AmNS)UTP at time 0, F0 is the fluorescence emission intensity at time 0, and Ft is the fluorescence emission intensity at time t.

The target of data set [6] is T2, Thermus thermophilus σ^A RNAP holoenzyme (Thermus thermophilus, UniProt Q8RQE8).
T2 construct: made in house
Briefly: fluorescence-detected abortive initiation assay. It counts as biochemical. The following applies: lacUV5-12 DNA fragment, 37° C. Here is the method: as §1

Bridge positions count the residues as written; N and C are the ends. Peptide text beside a SMILES is read from it.

T1 sequence (P00579 whole entry): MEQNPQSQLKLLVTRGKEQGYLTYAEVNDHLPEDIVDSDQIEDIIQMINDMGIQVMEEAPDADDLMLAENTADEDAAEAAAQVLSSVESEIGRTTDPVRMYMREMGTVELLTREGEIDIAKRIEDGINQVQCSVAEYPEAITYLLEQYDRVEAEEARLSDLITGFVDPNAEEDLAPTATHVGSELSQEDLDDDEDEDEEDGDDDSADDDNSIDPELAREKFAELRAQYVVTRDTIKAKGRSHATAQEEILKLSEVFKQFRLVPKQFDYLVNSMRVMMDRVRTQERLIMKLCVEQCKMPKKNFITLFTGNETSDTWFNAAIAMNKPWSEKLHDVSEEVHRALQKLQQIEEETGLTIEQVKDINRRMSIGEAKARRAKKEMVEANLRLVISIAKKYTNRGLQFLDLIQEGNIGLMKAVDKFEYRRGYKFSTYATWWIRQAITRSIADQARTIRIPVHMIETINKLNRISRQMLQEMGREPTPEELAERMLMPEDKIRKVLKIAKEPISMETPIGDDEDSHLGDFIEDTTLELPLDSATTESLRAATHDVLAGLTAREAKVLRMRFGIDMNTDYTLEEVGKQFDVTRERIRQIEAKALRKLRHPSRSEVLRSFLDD
T1 sequence (P0A8T7 whole entry): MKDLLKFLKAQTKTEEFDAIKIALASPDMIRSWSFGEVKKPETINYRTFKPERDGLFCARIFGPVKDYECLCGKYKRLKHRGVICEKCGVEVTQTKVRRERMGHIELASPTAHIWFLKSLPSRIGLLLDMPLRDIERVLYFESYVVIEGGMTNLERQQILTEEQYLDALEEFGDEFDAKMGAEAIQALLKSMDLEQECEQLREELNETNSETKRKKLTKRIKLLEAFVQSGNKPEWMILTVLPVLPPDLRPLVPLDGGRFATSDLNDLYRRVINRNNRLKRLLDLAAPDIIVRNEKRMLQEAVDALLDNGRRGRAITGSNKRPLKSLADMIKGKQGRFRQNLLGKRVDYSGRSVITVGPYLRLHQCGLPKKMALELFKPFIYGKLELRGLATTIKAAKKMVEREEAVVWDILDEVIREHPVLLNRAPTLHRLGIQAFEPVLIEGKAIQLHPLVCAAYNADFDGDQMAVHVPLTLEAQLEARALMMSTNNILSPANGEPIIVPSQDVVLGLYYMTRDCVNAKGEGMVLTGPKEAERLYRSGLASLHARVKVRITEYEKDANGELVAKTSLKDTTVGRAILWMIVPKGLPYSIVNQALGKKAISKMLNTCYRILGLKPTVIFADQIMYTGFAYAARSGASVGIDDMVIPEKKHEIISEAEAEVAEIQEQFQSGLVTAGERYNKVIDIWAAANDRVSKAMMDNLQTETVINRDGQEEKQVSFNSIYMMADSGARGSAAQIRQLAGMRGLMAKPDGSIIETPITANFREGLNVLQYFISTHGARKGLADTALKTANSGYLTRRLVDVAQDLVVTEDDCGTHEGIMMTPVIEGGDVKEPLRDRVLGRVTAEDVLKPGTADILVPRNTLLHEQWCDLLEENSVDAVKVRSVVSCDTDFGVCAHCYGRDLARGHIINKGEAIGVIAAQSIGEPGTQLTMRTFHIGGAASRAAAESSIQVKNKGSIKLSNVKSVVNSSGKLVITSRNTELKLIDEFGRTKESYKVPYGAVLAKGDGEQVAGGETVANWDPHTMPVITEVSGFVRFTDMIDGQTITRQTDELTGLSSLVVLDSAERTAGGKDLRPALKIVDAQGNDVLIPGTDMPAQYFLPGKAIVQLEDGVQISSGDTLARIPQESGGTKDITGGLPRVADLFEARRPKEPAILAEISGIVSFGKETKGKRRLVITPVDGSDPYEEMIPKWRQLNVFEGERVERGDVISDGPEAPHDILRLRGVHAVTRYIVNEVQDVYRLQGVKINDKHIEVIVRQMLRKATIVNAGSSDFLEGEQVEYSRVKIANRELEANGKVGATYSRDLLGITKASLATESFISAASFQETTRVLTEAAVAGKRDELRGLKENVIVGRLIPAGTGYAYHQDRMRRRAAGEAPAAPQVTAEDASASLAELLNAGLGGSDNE
T1 sequence (P0A8V2 whole entry, further chain): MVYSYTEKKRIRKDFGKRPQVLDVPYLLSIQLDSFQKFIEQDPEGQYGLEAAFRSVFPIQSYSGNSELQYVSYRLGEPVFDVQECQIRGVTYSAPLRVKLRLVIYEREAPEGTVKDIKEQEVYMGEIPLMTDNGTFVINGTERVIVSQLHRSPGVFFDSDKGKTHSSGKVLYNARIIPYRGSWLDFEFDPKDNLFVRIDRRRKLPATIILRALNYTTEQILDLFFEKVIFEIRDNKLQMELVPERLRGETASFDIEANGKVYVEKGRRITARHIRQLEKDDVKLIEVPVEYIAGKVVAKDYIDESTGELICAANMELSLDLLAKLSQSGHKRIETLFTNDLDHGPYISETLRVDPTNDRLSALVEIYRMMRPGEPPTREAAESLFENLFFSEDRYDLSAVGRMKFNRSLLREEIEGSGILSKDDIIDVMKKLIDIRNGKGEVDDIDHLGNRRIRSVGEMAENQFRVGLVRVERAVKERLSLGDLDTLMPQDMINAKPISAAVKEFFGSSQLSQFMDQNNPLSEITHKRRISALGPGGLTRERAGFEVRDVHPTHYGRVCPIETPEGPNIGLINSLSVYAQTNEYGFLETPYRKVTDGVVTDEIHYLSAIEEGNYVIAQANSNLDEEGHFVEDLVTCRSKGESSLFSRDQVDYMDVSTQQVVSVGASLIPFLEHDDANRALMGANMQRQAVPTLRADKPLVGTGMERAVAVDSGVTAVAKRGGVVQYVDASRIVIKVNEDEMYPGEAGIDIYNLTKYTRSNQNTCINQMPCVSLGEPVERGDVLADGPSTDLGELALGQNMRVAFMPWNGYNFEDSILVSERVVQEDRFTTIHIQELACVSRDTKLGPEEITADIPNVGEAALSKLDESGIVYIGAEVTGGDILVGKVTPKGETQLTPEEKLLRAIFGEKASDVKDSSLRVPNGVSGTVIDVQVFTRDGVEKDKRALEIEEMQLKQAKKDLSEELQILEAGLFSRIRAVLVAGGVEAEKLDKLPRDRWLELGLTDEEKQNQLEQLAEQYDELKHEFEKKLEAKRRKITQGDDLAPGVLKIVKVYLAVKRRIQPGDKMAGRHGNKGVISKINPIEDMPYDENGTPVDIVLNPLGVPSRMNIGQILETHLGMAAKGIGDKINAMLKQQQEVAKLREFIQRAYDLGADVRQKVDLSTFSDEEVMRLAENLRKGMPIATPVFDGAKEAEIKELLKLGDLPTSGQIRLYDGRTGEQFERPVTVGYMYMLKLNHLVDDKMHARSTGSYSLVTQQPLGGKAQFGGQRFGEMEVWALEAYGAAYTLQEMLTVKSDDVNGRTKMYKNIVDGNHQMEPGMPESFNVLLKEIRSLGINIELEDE
T1 sequence (P0A800 whole entry, further chain): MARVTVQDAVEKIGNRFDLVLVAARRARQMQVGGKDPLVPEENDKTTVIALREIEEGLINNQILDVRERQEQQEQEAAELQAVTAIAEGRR
T1 sequence (P0A7Z4 whole entry, further chain): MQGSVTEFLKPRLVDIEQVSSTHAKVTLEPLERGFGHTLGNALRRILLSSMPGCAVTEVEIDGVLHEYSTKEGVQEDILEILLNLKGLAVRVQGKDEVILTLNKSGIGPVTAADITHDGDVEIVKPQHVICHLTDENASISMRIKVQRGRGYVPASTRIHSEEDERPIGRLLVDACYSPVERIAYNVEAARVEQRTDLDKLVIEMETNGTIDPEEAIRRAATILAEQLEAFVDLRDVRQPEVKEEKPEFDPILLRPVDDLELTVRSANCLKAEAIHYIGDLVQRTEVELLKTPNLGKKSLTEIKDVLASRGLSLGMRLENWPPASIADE

Consider “Gly1-Gly2-Ala3-Gly4-His5-Pro6-Val7-Glu8-Tyr9-Phe10-Val11-Gly12-Ile13-Gly14-Thr15-Pro16-Ile17-Ser18-Phe19-Tyr20-Gly21 cyclic(8→1) peptide [MccJ25]”, for which the “inhibition of Thermus-Deinoccoccus bacterial RNAP” value in data set [1] was “does not inhibit”. The resistance to denaturation entry in data set [2] is “complete resistance to tested thermal and chemical denaturants”. In addition, the “inhibition of Gram-positive bacterial RNAP” value in data set [3] is listed as “does not inhibit”. For the same compound, the resistance to proteolysis result in data set [4] was “complete resistance to tested mesophilic endo- and exopeptidease”.
With `CC[C@H](C)[C@H](NC(=O)[C@H](Cc1ccccc1)NC(=O)[C@@H](NC(=O)[C@H](Cc1cnc[nH]1)NC(=O)CNC(=O)CNC(=O)[C@H](Cc1ccccc1)NC(=O)[C@H](CC(C)C)NC(=O)[C@@H]1CC(=O)NCC(=O)N[C@@H](Cc2ccc(O)cc2)C(=O)N2CCC[C@H]2C(=O)N[C@@H](Cc2c[nH]c3ccccc23)C(=O)N[C@@H](Cc2c[nH]c3ccccc23)C(=O)N[C@@H](CC(=O)O)C(=O)N[C@@H](Cc2ccc(O)cc2)C(=O)N[C@@H](CCCNC(=N)N)C(=O)N1)[C@@H](C)O)C(=O)N[C@@H](CO)C(=O)N1CCC[C@H]1C(=O)O` [propeptin] (GYPWWDYRDLFGGHTFISP-OH; lactam N-9), the values for the IC50 in data set [5] and in data set [6] were 30 µM and 5 µM, respectively.
Take `C[C@@H](O)[C@@H]1NC(=O)CNC(=O)[C@H](Cc2c[nH]cn2)NC(=O)[C@H](Cc2c[nH]c3ccccc23)NC(=O)[C@H](CC(N)=O)NC(=O)CNC(=O)C[C@@H](C(=O)N[C@@H](Cc2c[nH]c3ccccc23)C(=O)N[C@@H](Cc2ccccc2)C(=O)N[C@@H](Cc2ccccc2)C(=O)N[C@@H](CC(N)=O)C(=O)N[C@@H](Cc2ccc(O)cc2)C(=O)N[C@@H](Cc2ccc(O)cc2)C(=O)N[C@@H](Cc2c[nH]c3ccccc23)C(=O)O)NC(=O)[C@@H]2CCCN2C(=O)[C@H](CO)NC1=O` [RES-701-3] (GNWHGTSPDWFFNYYW-OH; lactam N-9; C-terminus assumed): the values for the IC50 in data set [5] and in data set [6] were 20 µM and 2 µM, respectively.
